In ChEMBL document CHEMBL5465560, “Selectivity Literature for EUbOPEN Chemogenomic Library” (2024):

Experiments:
[1] = target: T1, Interleukin-1 receptor-associated kinase 4 (Homo sapiens) (UniProt Q9NWZ3); experiment: Selectivity interaction (KinomeScan (DiscoverX)) EUB0001079a IRAK4; settings: at 1 µM
T1 sequence (whole entry): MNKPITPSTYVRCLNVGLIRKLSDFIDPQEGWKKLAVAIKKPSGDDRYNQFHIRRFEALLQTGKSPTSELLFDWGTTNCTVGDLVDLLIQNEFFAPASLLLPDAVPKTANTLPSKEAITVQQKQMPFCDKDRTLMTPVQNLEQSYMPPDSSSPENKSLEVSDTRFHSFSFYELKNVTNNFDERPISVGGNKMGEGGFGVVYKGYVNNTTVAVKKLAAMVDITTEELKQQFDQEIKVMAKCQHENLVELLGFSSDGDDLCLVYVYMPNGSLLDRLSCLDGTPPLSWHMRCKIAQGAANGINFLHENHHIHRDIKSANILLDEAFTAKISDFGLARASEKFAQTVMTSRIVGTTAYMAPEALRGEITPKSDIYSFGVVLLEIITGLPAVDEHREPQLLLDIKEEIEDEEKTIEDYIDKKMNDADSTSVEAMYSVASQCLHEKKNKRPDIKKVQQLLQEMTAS

[2] = target: T2, Serine/threonine-protein kinase Sgk2 (Homo sapiens) (UniProt Q9HBY8); experiment: Selectivity interaction (Kinase panel (Invitrogen)) EUB0000639a SGK2; settings: at 200 nM
T2 sequence (whole entry): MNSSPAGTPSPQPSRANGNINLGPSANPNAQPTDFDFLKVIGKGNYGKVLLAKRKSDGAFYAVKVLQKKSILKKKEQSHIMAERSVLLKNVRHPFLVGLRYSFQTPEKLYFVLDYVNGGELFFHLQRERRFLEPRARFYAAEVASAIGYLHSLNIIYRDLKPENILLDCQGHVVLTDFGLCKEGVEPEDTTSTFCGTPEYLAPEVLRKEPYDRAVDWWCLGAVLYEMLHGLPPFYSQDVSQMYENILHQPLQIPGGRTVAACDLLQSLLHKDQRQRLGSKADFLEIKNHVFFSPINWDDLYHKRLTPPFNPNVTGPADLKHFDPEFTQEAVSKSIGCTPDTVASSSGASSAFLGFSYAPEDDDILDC

[3] = target: Serine/threonine-protein kinase 38 (Homo sapiens) (UniProt Q15208); experiment: Selectivity interaction (ActivX KiNativ screen (kinase selectivity in THP-1 cell lysates)) EUB0000639a STK38; assay type: subcellular; settings: lysate, at 0.01 µM
Chain of Serine/threonine-protein kinase 38 (Homo sapiens) (Q15208 2-465 limits assumed): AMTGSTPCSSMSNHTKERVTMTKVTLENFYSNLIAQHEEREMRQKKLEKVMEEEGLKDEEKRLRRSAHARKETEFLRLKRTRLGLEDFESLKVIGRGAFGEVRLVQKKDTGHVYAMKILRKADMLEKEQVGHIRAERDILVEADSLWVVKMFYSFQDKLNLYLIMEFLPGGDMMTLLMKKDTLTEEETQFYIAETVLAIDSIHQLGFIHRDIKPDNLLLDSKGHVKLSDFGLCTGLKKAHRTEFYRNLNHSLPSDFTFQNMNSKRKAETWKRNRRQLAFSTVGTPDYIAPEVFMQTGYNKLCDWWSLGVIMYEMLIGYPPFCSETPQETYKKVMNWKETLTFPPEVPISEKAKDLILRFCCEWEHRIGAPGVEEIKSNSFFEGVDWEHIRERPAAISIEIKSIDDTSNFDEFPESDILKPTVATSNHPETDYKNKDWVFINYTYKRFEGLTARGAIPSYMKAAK

[4] = target: T3, Cyclin-G-associated kinase (Homo sapiens) (UniProt O14976); experiment: Selectivity interaction (KinomeScan (DiscoverX)) EUB0000595a GAK; settings: at 10 µM
T3 sequence (whole entry): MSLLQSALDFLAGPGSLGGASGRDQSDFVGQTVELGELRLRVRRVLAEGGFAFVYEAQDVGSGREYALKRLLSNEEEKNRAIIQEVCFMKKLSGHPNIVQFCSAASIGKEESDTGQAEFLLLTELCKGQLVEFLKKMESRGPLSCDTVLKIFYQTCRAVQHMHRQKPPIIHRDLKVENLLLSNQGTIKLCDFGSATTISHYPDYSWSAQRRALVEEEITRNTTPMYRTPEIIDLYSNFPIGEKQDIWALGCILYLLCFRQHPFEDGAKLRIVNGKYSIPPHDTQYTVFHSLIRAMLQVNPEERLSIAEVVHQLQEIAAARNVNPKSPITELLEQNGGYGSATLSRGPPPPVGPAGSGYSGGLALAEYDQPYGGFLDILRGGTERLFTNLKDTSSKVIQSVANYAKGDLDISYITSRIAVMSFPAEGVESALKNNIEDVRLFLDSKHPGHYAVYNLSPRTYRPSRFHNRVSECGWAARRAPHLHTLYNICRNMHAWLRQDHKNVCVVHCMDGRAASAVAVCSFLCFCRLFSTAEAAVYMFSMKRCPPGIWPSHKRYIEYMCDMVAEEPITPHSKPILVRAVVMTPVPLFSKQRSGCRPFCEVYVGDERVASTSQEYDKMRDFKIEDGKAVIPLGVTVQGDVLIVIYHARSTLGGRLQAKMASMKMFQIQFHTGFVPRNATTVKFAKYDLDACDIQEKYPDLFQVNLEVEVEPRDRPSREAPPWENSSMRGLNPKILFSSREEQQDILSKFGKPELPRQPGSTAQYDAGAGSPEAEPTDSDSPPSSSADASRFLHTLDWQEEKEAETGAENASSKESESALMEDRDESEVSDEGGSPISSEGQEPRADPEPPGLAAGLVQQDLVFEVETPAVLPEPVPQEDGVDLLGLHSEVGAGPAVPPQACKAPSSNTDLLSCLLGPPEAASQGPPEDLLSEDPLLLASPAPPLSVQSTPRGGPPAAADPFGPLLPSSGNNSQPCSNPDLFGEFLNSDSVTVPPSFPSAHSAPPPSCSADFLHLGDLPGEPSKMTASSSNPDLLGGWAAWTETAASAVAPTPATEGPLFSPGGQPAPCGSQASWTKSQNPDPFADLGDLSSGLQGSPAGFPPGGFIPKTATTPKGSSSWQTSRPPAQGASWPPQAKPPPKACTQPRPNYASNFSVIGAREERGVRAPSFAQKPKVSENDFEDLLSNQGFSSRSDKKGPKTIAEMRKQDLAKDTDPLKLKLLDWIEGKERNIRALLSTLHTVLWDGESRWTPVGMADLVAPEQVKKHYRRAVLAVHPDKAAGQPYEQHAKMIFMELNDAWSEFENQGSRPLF

[5] = target: T4, Serine/threonine-protein kinase Nek11 (Homo sapiens) (UniProt Q8NG66); experiment: Selectivity interaction (KinomeScan (DiscoverX)) EUB0000092b NEK11; settings: at 10 µM
T4 sequence (whole entry): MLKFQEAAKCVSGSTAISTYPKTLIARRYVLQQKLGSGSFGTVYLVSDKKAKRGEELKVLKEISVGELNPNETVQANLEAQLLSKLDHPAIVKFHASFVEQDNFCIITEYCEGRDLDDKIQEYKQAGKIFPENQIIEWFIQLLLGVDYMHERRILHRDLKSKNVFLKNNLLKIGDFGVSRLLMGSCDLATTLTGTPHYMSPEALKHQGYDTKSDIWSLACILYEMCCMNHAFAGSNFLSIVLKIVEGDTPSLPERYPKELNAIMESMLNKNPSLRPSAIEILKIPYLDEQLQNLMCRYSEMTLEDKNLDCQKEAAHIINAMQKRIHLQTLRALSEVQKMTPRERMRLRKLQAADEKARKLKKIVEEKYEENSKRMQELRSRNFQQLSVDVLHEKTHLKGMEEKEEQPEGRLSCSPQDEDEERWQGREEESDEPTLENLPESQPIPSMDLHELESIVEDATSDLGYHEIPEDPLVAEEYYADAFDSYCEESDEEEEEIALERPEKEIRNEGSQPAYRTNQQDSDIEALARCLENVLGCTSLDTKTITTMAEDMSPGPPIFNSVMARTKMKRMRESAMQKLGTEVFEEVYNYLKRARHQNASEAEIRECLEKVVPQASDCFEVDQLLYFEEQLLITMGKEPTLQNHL

[6] = target: Casein kinase II subunit alpha' (Homo sapiens) (UniProt P19784); experiment: Selectivity interaction (KinomeScan (DiscoverX)) EUB0000092b CSNK2A2; settings: at 10 µM
Chain of Casein kinase II subunit alpha' (Homo sapiens) (P19784 whole entry, looked up): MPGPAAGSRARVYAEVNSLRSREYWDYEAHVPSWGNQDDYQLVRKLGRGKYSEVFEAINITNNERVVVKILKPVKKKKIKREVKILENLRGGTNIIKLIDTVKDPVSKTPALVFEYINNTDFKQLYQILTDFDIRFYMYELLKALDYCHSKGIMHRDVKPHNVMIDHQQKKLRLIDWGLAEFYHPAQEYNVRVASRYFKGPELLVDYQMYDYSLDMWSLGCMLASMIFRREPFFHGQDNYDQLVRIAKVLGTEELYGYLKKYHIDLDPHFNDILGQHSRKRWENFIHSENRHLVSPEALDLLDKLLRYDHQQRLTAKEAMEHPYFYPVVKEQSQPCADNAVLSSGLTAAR

`Nc1cnc(N2CCc3cc(S(=O)(=O)Nc4c(F)cc(Cl)cc4F)cc(N4CCCC4=O)c32)nc1` [TP-020n] showed a % of control [1] of 100%.
For `CC[C@@H]1[C@H](F)C(=O)N[C@@H]1COc1nccc2cc(C(N)=O)c(OC)cc12` [ZIMLOVISERTIB], the % of inhibition [2] was 5.25% and the % of inhibition [3] was 1.5%.
Molecule `COCC(=O)NC/C=C/c1ccc2ncnc(Nc3ccc(Oc4ccc(C)nc4)c(C)c3)c2c1` [CP-724714] has a % of control [4] of 84%.
In the case of `CCC(=O)N1CCN(c2ccc(-n3c(=O)ccc4cnc5ccc(-c6cnc7ccccc7c6)cc5c43)cc2C(F)(F)F)CC1`, the % of control [5] is reported as 65% and the % of control [6] is reported as 11%.
